Drawing on the METLIN SMRT retention time set (Domingo-Almenara et al. 2019), this text covers RP-LC retention time for 82 molecules.

The nature of this data set: gradient 5% acetonitrile 3 min, to 50% in 2 min, to 85% in 15 min, held 3 min, 100 µL/min. The following applies: column: Zorbax Extend-C18 2.1 x 50 mm; eluents: water / acetonitrile, 0.1% formic acid. In outline:
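Retention times come from adduct peaks that were picked computationally and then checked by hand. The standards, pure and pooled in mixtures of ~100 molecules, were run on a Zorbax Extend-C18 column (2.1 × 50 mm, 1.8 μm) at 100 μL/min with water and acetonitrile, each with 0.1% formic acid. Detection was by quadrupole time-of-flight mass spectrometry in positive and negative ionization mode, with a dead volume of 40 μL and a dwell volume of 900 μL.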
As to `CCN(CC)c1ncc2c(n1)CCC(C(=O)Nc1ccc(OC)c(F)c1)C2` (configuration not stated), the RP-LC retention time worked out at 726 s.

Take `CC(C)c1nnc(NC(=O)C2CC(=O)N(CCc3c[nH]c4ccc(F)cc34)C2)s1` (configuration not stated): the RP-LC retention time stood at 746 s. On to `COc1ccc2[nH]cc(CCNC(=O)c3ccc(N4CCCC4)c(S(=O)(=O)N4CCCC4)c3)c2c1`, for which the RP-LC retention time stood at 921 s. Molecule `CC(C)OC(=O)Nc1ccc2nc(-c3cscn3)[nH]c2c1` came in with an RP-LC retention time of 666 s. With `Cc1ccc(NC(=O)Cn2c(C)nc3onc(C)c3c2=O)cc1Cl`, the RP-LC retention time was 885 s. The value for `Oc1ccc(-c2ccc(F)cc2)cc1CN1CCCCCC1` was 694 s; that for `CCOC(=O)C1CCC(CNC(=O)Nc2cc3c(cc2N2CCCCC2)n(C)c(=O)n3C)CC1` (configuration not stated) was 689 s; that for `Cc1ccccc1NC(=O)Nc1ccc2c(c1)CCN2S(=O)(=O)c1ccccc1` was 969 s. For `CCCNC(=O)C1CCN(c2ccc(SCC(=O)Nc3c(F)cccc3F)nn2)CC1`, the RP-LC retention time was found to be 614 s. Turning to `Cc1n[nH]c(C)c1S(=O)(=O)N1CCOCC1`, the RP-LC retention time turned out to be 582 s. `COCc1c(C(=O)O)nnn1-c1cccc(C(F)(F)F)c1` showed an RP-LC retention time of 760 s.

Take `CCCNc1cc(N2CCC(CCC(=O)NCc3cccs3)CC2)ncn1`: the RP-LC retention time was found to be 661 s. The value for `Cc1onc(-c2ccccc2Cl)c1C(=O)NCCN(C)C` was 591 s; that for `CCc1cccc(C)c1NC(=O)CCC(=O)N1CCOc2ccccc21` was 854 s. `COC(=O)c1cc2c(=O)n(-c3nc4ccc(Cl)cc4s3)ccc2nc1C` came in with an RP-LC retention time of 1350 s. The molecule `COc1cccc(-c2nc(NCc3cccnc3)ncc2C(=O)O)c1` yielded an RP-LC retention time of 576 s. For `O=C(c1ccc(Br)o1)N1CC2CN(S(=O)(=O)c3ccccc3)CC(C1)O2` the value was 781 s; for `O=C(Nc1cnn(-c2ncc(N3CCSCC3)cn2)c1)C1CCOC1` (configuration not stated), 640 s; for `CC1CCN(CCCNC(=O)C2CCc3sc(C(=O)N4CCCC4)cc3C2)CC1` (configuration not stated), 610 s.

The molecule `Cc1ccc(-c2nc3ccc(Cl)cn3c2Nc2ccc3c(c2)OCCO3)cc1` registered an RP-LC retention time of 779 s. In the case of `CCc1noc(-c2cccn2Cc2ccc(OC)c(F)c2)n1`, the RP-LC retention time worked out at 1100 s. In turn, `Cc1nnc(-c2ccc3ccn(CC(=O)Nc4ccc(F)cc4F)c3c2)o1` yielded an RP-LC retention time of 801 s. The molecule `Cc1cccc2sc(NC(=O)CNC(=O)c3ccc(=O)[nH]c3)nc12` had an RP-LC retention time of 613 s.

`Cc1cccc(-n2c(=O)c3sccc3n(Cc3nc(-c4ccc(OC(C)C)cc4)no3)c2=O)c1` returned an RP-LC retention time of 1120 s. For `COc1ccc(-c2nc3cnccn3c2Nc2ccc(C(N)=O)cc2)cc1OC` the value was 593 s; for `O=C(NCc1ccco1)N1CCOCC1`, 568 s. For the molecule `CCSc1nnc(NC(=O)c2nn(-c3ccc(F)cc3)cc2OC)s1`, the RP-LC retention time is 881 s. `CCc1ccc(C2=C(C)C(N3CCCN(C(=O)C(C)(C)CC)CC3)=NS2(=O)=O)cc1` gave an RP-LC retention time of 935 s. `Cc1cc(C(=O)N2CCc3nn(C)c(=O)n3CC2)n[nH]1` displayed an RP-LC retention time of 560 s. For the molecule `COc1ccc(-c2cc3c(=O)n(Cc4noc(CN5CCCCC5C)n4)ccn3n2)cc1` (configuration not stated), the RP-LC retention time amounted to 674 s. `CC(C)C1c2nccn2CCCN1C(=O)c1cc(C2CC2)[nH]n1` (configuration not stated) returned an RP-LC retention time of 592 s. On to `O=C1CC(c2ccc(O)cc2)Oc2cc(O)cc(O)c21` (configuration not stated), for which the RP-LC retention time came to 784 s. Regarding `N#Cc1cn(CC(=O)NCc2ccc3c(c2)OCCCO3)c2ccccc12`, the RP-LC retention time was determined as 842 s.

For the molecule `O=C(CN1CCC2(CC1)N=C(c1ccc(Br)cc1)C(=O)N2)Nc1ccc(F)cc1`, the RP-LC retention time came to 700 s. With `Cc1ccccc1NC(=O)N1CCC2(C1)C(=O)Nc1ccccc12` (configuration not stated), the RP-LC retention time is 727 s. For `O=C(c1ccc(Cl)cc1)N1CCC(n2c(-c3ccoc3)nc3cccnc32)C1` (configuration not stated) the value was 782 s. For `COCCNC(=O)c1nc2cccnc2n(C)c1=O` the value was 585 s; for `CCCNC(=O)C1CCCN(c2ccc(SCC(=O)Nc3ccc(F)c(F)c3)nn2)C1` (configuration not stated), 662 s.

In turn, `N#C/C(=C\c1c[nH]c2ccccc12)C(N)=O` showed an RP-LC retention time of 713 s. In the case of `CCc1ccc(N2C(=O)C3N=NN(Cc4nc(-c5cccc(Br)c5)no4)C3C2=O)cc1` (configuration not stated), the RP-LC retention time came out at 1120 s. The molecule `CCc1sc(NC(=O)Cc2ccc(F)cc2)nc1-c1ccccc1` displayed an RP-LC retention time of 1110 s. The molecule `CCOC(=O)N1CCN(C(=O)C2CCCN(c3ccc(-c4ccc(C)c(C)c4)nn3)C2)CC1` (configuration not stated) registered an RP-LC retention time of 715 s. Consider `COc1ccc(-c2nc3cnccn3c2Nc2cc(C)cc(C)c2)cc1`, for which the RP-LC retention time is 952 s.

Regarding `COC(=O)c1cc(S(=O)(=O)N2CCCC2C(=O)N2CCC(C)CC2)cn1C` (configuration not stated), the RP-LC retention time amounted to 770 s. Take `Cn1c(N2CCCC(C(=O)NCCCN3CCC(Cc4ccccc4)CC3)C2)cc(=O)n(C)c1=O` (configuration not stated): the RP-LC retention time came to 630 s. Consider `COc1ccc(N2CCn3c(SCC(=O)Nc4nc5ccccc5s4)nnc32)cc1`, for which the RP-LC retention time came to 742 s. Take `COc1cc(-c2nc3ncccn3c2Nc2ccccc2)ccc1O`: the RP-LC retention time was 633 s.

In the case of `COc1cc(NC(=O)c2ccc(-n3cnc(NC(=O)C4CC4)c3)cc2)cc(OC)c1`, the RP-LC retention time was 744 s. For the molecule `CCN1C(=O)c2cc(C(=O)N3CCN(c4ncccn4)CC3)nn2CC1(C)C(=O)NC1CCCC1` (configuration not stated), the RP-LC retention time came out at 691 s. For the molecule `CCCNC(=O)C1CCCN(c2ccc(SCC(=O)Nc3ccccc3C(=O)OC)nn2)C1` (configuration not stated), the RP-LC retention time is 705 s.

In the case of `COc1ccc(Cn2c(C)c(CNCc3ccccn3)c(C(=O)O)c2C)cc1`, the RP-LC retention time was 690 s.

The molecule `Cc1ccccc1-c1noc(C2CCCN2S(=O)(=O)c2ccc(Br)s2)n1` (configuration not stated) registered an RP-LC retention time of 1230 s. As for `O=C(NCCCN1CCCC1=O)c1nc(Nc2ccc(F)cc2)c2ccccc2n1`, the RP-LC retention time came out at 636 s.

For the molecule `CCN1C=C(C(=O)OCc2cccc(F)c2)C(C)=NS1(=O)=O`, the RP-LC retention time turned out to be 968 s. Turning to `CC(=O)Nc1ccc(CCc2nc3ccc(C(=O)NCc4cccc(Br)c4)cc3[nH]2)cc1`, the RP-LC retention time turned out to be 669 s. The molecule `CCC(=O)Nc1ccc(OCc2cc(C(=O)NC3CCCC3)no2)cc1` came in with an RP-LC retention time of 740 s. Molecule `Cc1cccc(Cn2c(CN3CCC(C(=O)NC(C)C)CC3)cc3ccccc32)c1` came in with an RP-LC retention time of 737 s. For `CCn1c(=O)c(N2CCC(C(=O)NCCCN3CCCC(C)C3)CC2)nc2cccnc21` (configuration not stated), the RP-LC retention time was found to be 640 s. Molecule `COCCN1C(=O)Cc2ccccc2C1C(=O)N1CCCCC1` (configuration not stated) yielded an RP-LC retention time of 725 s. Molecule `Cc1ccc(CCNC(=O)c2ccc3c(c2)N(C)C(=O)C2CCCCN32)cc1` (configuration not stated) gave an RP-LC retention time of 947 s. `CC(Cc1ccco1)NC(=O)CN1C(=O)CN(C(=O)NCc2ccccc2)c2ccccc21` (configuration not stated): the RP-LC retention time stood at 816 s.

In the case of `O=C(NCc1ccccc1C(F)(F)F)c1cn2nc(Cl)ccc2n1`, the RP-LC retention time worked out at 922 s. As for `O=c1n(Cc2ccc(F)cc2Cl)nc2ccc(S(=O)(=O)N3CCCCC3)cn12`, the RP-LC retention time is 990 s. `CC1CCCCN1S(=O)(=O)c1ccc2c(c1)CCC(=O)N2CC(=O)NC1CCCCC1` (configuration not stated): the RP-LC retention time was found to be 921 s. The value for `CCS(=O)(=O)c1ccc2c(c1)N(Cc1nc(-c3ccc(OC(F)(F)F)cc3)no1)C(=O)CO2` was 1030 s; that for `CN1C(=O)C2CCCCN2c2ccc(C(=O)NCCCN3CCOCC3)cc21` (configuration not stated) was 579 s; that for `COc1ccccc1N1CCN(c2cc(SCC(=O)NCc3ccccc3Cl)ncn2)CC1` was 908 s. In turn, `CCCC1c2nccn2CCCN1C(=O)Cc1c(C)noc1C` (configuration not stated) returned an RP-LC retention time of 579 s. For `CN(CC1CCOC1)C(=O)Nc1ccc(Cl)cc1F` (configuration not stated) the value was 728 s; for `CCn1nccc1-c1cccc(-c2noc(-c3ccsc3)n2)c1`, 1130 s; for `CC(CNC(=O)c1cc2c(s1)CN(C1CC1)C2)c1ccccc1` (configuration not stated), 731 s.

Molecule `CCNC(=O)N1CCCC(c2cccc(C(=O)NCc3ccc(CC)cc3)c2)C1` (configuration not stated) showed an RP-LC retention time of 908 s.

For `O=C(Cn1nc(N2CCSCC2)c2ccccc2c1=O)Nc1ccc2c(c1)OCCO2`, the RP-LC retention time stood at 818 s. Turning to `CCc1ccc(-c2cc(C(=O)N3CCN(C)CC3)[nH]n2)cc1`, the RP-LC retention time is 620 s.

`O=C(NCC1CC1)c1ccc2nc(-c3ccccc3)cn2c1` showed an RP-LC retention time of 629 s. The value for `Cc1cccc(-c2nc3cnccn3c2NCCC(=O)N2CCCC2)c1` was 650 s; that for `Cn1c(C(=O)NC2CCCCCC2)cc2sccc21` was 1020 s. `COCCN1CCC(N2CCCN(C(=O)NCCc3ccccc3)CC2)C1=O` (configuration not stated) gave an RP-LC retention time of 526 s.

Molecule `Cn1nc(C(=O)N2CCC(Oc3ccc(-c4noc(C5CC5)n4)cc3)C2)c2ccccc21` (configuration not stated) displayed an RP-LC retention time of 1050 s. In turn, `Cc1ccc(CN2C[C@@H](CO)[C@H](c3nc(-c4cccnc4)no3)C2)o1` showed an RP-LC retention time of 596 s.

Regarding `CC(C)c1nc(N2CCCC2=O)sc1C(=O)NCc1ccc(F)cc1`, the RP-LC retention time was 970 s. The value for `COc1ccc(CCC(=O)N2CCn3c(C)nnc3C2)cc1` was 569 s.
